Patent US20220009920A1 (GB005, Inc., priority 2020, published 2022)

What was measured:
Assay in all cases: Large panel kinase profiling
Assay type in all cases: biochemical
Conditions in all cases: 1 μM test article, 1 mM ATP
GRK4 = target: T1, GRK4 (Homo sapiens, UniProt P32298)
T1 construct: AssayQuant Technologies, Inc. (service provider)
How it was run: (§1)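 Activity is measured in real time from the CSox sensor's fluorescence at 485 nm after 360 nm excitation, sampled every minute. Assays run at 30° C. with 1 mM ATP and a single 1 μM compound dose.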

FGFR4 = FGFR4 (Homo sapiens, UniProt P22455)
How it was run: as §1

AAK1 = AAK1 (Homo sapiens, UniProt Q2M2I8)
How it was run: as §1

HIPK4 = target: T2, HIPK4 (Homo sapiens, UniProt Q8NE63)
T2 construct: AssayQuant Technologies, Inc. (service provider)
T2 sequence (Q8NE63 1-616): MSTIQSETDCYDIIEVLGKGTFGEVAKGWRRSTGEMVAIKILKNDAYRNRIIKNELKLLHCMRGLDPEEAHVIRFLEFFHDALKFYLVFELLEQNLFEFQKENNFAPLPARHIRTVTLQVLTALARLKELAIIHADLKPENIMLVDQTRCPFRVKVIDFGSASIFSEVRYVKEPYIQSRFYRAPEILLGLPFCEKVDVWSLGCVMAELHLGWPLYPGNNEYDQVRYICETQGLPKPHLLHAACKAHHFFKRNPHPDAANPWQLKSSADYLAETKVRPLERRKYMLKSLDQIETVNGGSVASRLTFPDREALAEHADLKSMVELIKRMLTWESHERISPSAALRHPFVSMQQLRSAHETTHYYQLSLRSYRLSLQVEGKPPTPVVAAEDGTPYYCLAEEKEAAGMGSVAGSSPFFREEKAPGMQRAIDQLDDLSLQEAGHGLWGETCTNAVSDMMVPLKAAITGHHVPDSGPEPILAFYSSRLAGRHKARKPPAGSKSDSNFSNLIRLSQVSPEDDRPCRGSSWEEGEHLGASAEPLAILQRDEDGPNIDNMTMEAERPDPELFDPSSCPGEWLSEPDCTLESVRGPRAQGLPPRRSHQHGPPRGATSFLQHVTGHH
How it was run: as §1

MAP3K3 = target: T3, MAP3K3 (Homo sapiens, UniProt Q99759)
T3 construct: AssayQuant Technologies, Inc. (service provider)
T3 sequence (Q99759 1-626): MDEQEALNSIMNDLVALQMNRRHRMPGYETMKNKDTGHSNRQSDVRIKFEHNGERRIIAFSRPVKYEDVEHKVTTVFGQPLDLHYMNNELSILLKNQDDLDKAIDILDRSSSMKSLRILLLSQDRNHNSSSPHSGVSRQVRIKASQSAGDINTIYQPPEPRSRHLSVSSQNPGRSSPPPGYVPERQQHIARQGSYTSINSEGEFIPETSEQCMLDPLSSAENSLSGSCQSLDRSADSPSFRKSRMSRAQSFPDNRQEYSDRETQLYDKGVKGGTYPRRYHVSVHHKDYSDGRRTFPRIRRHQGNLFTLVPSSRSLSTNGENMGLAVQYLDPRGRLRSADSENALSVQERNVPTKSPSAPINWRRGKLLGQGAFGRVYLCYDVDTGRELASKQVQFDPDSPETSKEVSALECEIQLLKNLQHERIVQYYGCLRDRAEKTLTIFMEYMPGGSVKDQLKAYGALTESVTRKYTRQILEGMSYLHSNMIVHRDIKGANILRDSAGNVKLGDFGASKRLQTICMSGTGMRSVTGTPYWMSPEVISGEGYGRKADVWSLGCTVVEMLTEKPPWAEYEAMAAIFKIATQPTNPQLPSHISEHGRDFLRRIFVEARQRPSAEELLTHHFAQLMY
How it was run: as §1

JAK1(JH1JH2) = target: T4, JAK1(JH1JH2) (Homo sapiens, UniProt P23458)
T4 construct: JAK1(JH1JH2)
How it was run: as §1

T4 sequence (P23458 561-1154 limits assumed, species assumed): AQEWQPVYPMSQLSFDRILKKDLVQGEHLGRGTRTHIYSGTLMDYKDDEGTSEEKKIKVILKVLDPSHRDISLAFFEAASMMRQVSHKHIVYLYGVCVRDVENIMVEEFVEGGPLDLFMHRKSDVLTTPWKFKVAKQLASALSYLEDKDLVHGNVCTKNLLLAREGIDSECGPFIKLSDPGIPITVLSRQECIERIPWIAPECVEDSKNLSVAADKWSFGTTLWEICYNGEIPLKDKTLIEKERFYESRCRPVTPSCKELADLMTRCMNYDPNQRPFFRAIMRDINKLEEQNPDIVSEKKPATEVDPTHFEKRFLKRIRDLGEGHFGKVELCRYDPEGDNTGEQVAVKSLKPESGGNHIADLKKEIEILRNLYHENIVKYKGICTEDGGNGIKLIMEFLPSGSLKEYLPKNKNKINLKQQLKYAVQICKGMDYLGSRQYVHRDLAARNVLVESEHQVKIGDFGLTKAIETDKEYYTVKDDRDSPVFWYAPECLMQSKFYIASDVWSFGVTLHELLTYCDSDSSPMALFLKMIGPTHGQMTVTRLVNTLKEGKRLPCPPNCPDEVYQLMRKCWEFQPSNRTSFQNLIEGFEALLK
AAK1, sequence (Q2M2I8 whole entry): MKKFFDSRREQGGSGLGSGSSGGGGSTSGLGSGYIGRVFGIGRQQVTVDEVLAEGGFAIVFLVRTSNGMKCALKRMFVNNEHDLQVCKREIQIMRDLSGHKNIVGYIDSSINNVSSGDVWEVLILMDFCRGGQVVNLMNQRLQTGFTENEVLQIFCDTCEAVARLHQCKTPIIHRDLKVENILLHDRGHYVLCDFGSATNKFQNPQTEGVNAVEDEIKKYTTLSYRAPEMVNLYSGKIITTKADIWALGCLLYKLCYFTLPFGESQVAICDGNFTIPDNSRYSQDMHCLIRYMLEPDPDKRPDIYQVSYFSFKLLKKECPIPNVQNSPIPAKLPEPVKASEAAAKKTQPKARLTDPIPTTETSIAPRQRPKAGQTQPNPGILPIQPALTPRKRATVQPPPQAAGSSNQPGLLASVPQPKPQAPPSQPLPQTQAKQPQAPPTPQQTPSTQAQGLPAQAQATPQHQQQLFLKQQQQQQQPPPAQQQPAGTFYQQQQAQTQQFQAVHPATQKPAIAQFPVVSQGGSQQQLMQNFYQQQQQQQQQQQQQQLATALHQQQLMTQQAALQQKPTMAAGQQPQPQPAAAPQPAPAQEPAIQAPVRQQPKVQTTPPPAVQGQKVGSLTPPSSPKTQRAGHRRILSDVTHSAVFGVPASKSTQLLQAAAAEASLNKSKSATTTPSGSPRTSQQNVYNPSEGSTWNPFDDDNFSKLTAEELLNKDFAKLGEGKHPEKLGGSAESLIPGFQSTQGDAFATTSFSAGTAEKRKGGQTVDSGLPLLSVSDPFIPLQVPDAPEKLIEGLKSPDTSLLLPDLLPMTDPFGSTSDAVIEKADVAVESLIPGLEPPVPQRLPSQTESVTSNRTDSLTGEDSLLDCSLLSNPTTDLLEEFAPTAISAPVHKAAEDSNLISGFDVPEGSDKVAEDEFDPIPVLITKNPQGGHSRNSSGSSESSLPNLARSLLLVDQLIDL
T1 sequence (P32298 whole entry, species assumed): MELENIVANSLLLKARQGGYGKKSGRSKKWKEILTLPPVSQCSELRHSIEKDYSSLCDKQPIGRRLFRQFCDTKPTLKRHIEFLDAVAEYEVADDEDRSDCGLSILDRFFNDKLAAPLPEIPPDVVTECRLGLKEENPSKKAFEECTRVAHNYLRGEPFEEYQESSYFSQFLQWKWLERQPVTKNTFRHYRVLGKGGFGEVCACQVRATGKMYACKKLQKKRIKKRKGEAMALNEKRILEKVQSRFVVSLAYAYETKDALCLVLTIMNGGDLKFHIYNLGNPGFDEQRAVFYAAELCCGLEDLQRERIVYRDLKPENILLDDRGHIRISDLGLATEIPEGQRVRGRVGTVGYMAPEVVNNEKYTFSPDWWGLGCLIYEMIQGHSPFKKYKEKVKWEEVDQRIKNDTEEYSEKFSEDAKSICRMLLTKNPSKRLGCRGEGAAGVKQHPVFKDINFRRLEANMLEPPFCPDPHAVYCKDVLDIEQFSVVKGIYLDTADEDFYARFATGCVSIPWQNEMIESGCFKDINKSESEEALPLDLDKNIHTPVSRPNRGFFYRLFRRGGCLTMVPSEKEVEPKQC
FGFR4, sequence (P22455 22-802, species assumed): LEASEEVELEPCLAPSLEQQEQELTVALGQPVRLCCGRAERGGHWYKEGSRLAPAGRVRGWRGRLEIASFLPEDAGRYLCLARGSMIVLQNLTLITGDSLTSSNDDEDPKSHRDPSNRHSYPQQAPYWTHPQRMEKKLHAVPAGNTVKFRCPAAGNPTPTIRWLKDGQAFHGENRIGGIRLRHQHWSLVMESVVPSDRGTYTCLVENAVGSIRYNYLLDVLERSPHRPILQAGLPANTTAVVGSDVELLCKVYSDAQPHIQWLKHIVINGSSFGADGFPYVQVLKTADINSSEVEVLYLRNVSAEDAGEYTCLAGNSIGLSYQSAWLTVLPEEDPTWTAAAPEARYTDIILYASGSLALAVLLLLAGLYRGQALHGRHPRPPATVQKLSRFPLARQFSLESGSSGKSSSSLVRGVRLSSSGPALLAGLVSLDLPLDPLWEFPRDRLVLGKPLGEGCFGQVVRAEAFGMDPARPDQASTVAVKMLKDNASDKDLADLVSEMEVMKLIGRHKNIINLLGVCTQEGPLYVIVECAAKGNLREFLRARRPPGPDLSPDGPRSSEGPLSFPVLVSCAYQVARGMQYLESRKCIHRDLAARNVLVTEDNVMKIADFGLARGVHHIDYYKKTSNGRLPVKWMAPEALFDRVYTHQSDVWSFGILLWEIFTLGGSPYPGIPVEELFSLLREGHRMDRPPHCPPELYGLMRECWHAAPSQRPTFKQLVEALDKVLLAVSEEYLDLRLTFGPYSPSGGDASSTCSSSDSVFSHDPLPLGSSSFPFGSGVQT

Row | Structure (SMILES) | inhibition at 1 µM (GRK4) [%] | inhibition at 1 µM (FGFR4) [%] | inhibition at 1 µM (AAK1) [%] | inhibition at 1 µM (HIPK4) [%] | inhibition at 1 µM (MAP3K3) [%] | inhibition at 1 µM (JAK1(JH1JH2)) [%]
1 | C=CC(=O)N1CCCC(c2c(F)cc(C(N)=O)c3[nH]c4c(c23)CCCCC4)C1 (single isomer, unassigned) [Compound 5-6] | 3.4 | 24.5 | -20.3 | -1.6 | -7 | 8.5
2 | C=CC(=O)N1CCC[C@@H](c2c(F)cc(C(N)=O)c3[nH]c4c(c23)CC2(CC4)CC2)C1 [Compound 6-2, (S)-5-(1-acryloylpiperidin-3-yl)-6-fluoro-1,2,4,9-tetrahydrospiro[carbazole-3,1′-cyclopropane]-8-carboxamide] | -53 | 4.9 | -15.7 | -1.9 | -3.6 | 29.4
3 | C=CC(=O)N1CCC[C@@H](c2c(F)cc(C(N)=O)c3[nH]c4c(c23)CCC4)C1 [Compound 10-2, (S)-8-(1-acryloylpiperidin-3-yl)-7-fluoro-1,2,3,4-tetrahydrocyclo-penta[b]indole-5-carboxamide] | -36.1 | 9.8 | -14.3 | 24.3 | 19.9 | 14.8
